PubChem BioAssay AID1963867 (Molecular Pharmacology Branch, DTP, NCI, 2024)

Tested on: KRAS-mutant PDC tumor spheroid with HUVEC/MSC, viability
Test: Anticancer human tumor 327498-153-R-J2-PDC patient-derived uterine carcinosarcoma cell line growth inhibition [KRAS2]
Conditions: for IC50: curve of first compound; for viability, T/C: stronger effect = lower value
Method in brief: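 KRAS-mutant tumor cells were grown as spheroids with HUVEC endothelial cells and human MSCs as stroma. Targeted agents were tested alone and with KRAS pathway inhibitors. Doses started at or near clinical Cmax, or 10 microM, descending half-log.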

[1] = second compound 0.1 µM, first compound 0.0316 µM
[2] = second compound 0.1 µM, first compound 0.1 µM
[3] = second compound 0.1 µM, first compound 0.316 µM
[4] = second compound 0.1 µM, first compound 1 µM
[5] = second compound 0.316 µM, first compound 0.0316 µM
[6] = second compound 0.316 µM, first compound 0.1 µM
[7] = second compound 0.316 µM, first compound 0.316 µM
[8] = second compound 0.316 µM, first compound 1 µM
[9] = second compound 1 µM, first compound 0.0316 µM
[10] = second compound 1 µM, first compound 0.1 µM
[11] = second compound 1 µM, first compound 0.316 µM
[12] = second compound 1 µM, first compound 1 µM
[13] = second compound 3.16 µM, first compound 0.0316 µM
[14] = second compound 3.16 µM, first compound 0.1 µM
[15] = second compound 3.16 µM, first compound 0.316 µM
[16] = second compound 3.16 µM, first compound 1 µM
[17] = second compound 10 µM, first compound 0.0316 µM
[18] = second compound 10 µM, first compound 0.1 µM
[19] = second compound 10 µM, first compound 0.316 µM
[20] = second compound 10 µM, first compound 1 µM
[21] = second compound 0.1 µM, first compound 3.16 µM
[22] = second compound 0.1 µM, first compound 10 µM
[23] = second compound 0.316 µM, first compound 3.16 µM
[24] = second compound 0.316 µM, first compound 10 µM
[25] = second compound 1 µM, first compound 3.16 µM
[26] = second compound 1 µM, first compound 10 µM
[27] = second compound 3.16 µM, first compound 3.16 µM
[28] = second compound 3.16 µM, first compound 10 µM
[29] = second compound 10 µM, first compound 3.16 µM
[30] = second compound 10 µM, first compound 10 µM
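Note: spheroids exposed to agents for seven days before reading.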
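Throughout, for viability, T/C: 100% = DMSO vehicle wells so lower means fewer viable cells.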

Q: What does the source list for `CCN1CCN(Cc2ccc(Nc3ncc(F)c(-c4cc(F)c5nc(C)n(C(C)C)c5c4)n3)nc2)CC1` + COc1cc2nc(C)nc(NC(C)c3cc(N)cc(C(F)(F)F)c3)c2cc1OC1CCOC1?
A: IC50 (second compound 0.1 µM): 10.6 nM; IC50 (second compound 0.316 µM): 6.84 nM; IC50 (second compound 1 µM): < 3.16 nM; IC50 (second compound 3.16 µM): 4.42 nM; IC50 (second compound 10 µM): < 3.16 nM; viability, T/C (second compound 0.1 µM, first compound 0.00316 µM): 65.4%; viability, T/C (second compound 0.1 µM, first compound 0.01 µM): 52.8%; viability, T/C [1]: 42.6%; viability, T/C [2]: 40%; viability, T/C [3]: 40%; viability, T/C [4]: 49.2%; viability, T/C (second compound 0.316 µM, first compound 0.00316 µM): 61%; viability, T/C (second compound 0.316 µM, first compound 0.01 µM): 48%; viability, T/C [5]: 33.2%; viability, T/C [6]: 35.9%; viability, T/C [7]: 36.6%; viability, T/C [8]: 41.2%; viability, T/C (second compound 1 µM, first compound 0.00316 µM): 51.8%; viability, T/C (second compound 1 µM, first compound 0.01 µM): 37.8%; viability, T/C [9]: 33%; viability, T/C [10]: 30%; viability, T/C [11]: 39.5%; viability, T/C [12]: 42.8%; viability, T/C (second compound 3.16 µM, first compound 0.00316 µM): 56.4%; viability, T/C (second compound 3.16 µM, first compound 0.01 µM): 34.5%; viability, T/C [13]: 31%; viability, T/C [14]: 29.9%; viability, T/C [15]: 34.6%; viability, T/C [16]: 31.3%; viability, T/C (second compound 10 µM, first compound 0.00316 µM): 45.4%; viability, T/C (second compound 10 µM, first compound 0.01 µM): 28.9%; viability, T/C [17]: 29.2%; viability, T/C [18]: 26.9%; viability, T/C [19]: 20.3%; viability, T/C [20]: 0.34%

Q: Which IC50 (second compound 0.1 µM) does the source give for `CC1OCC2(CCN(c3cnc(Sc4ccnc(N)c4Cl)c(N)n3)CC2)C1N` (stereo not given) + CNCc1ccccc1-c1csc(C(C)Nc2nc(C)nc3cc(OC)c(OC)cc23)c1 here?
A: 136 nM

Q: And the IC50 (second compound 0.316 µM)?
A: 109 nM

Q: What about the IC50 (second compound 1 µM) of the same compound?
A: 100 nM

Q: What about the IC50 (second compound 3.16 µM) of the same compound?
A: < 31.6 nM

Q: What about the IC50 (second compound 10 µM) of the same compound?
A: < 31.6 nM

Q: What about the viability, T/C [1] of the same compound?
A: 75.4%

Q: What about the viability, T/C [2] of the same compound?
A: 52.6%

Q: What about the viability, T/C [3] of the same compound?
A: 41.2%

Q: What about the viability, T/C [4] of the same compound?
A: 34.2%

Q: And the viability, T/C [21]?
A: 30.9%

Q: What about the viability, T/C [22] of the same compound?
A: 27.7%

Q: What about the viability, T/C [5] of the same compound?
A: 61.4%

Q: What about the viability, T/C [6] of the same compound?
A: 51.8%

Q: And the viability, T/C [7]?
A: 36%

Q: What about the viability, T/C [8] of the same compound?
A: 31%

Q: What about the viability, T/C [23] of the same compound?
A: 28%

Q: What about the viability, T/C [24] of the same compound?
A: 24.6%

Q: And the viability, T/C [9]?
A: 65.7%

Q: What about the viability, T/C [10] of the same compound?
A: 50.1%

Q: And the viability, T/C [11]?
A: 39.9%

Q: What about the viability, T/C [12] of the same compound?
A: 31.9%

Q: And the viability, T/C [25]?
A: 31.7%

Q: What about the viability, T/C [26] of the same compound?
A: 27.5%

Q: What about the viability, T/C [13] of the same compound?
A: 0.11%

Q: And the viability, T/C [14]?
A: 0.09%

Q: What about the viability, T/C [15] of the same compound?
A: 0.08%

Q: And the viability, T/C [16]?
A: 0.06%

Q: What about the viability, T/C [27] of the same compound?
A: 0.06%

Q: And the viability, T/C [28]?
A: 0.17%

Q: What about the viability, T/C [17] of the same compound?
A: 0.13%

Q: And the viability, T/C [18]?
A: 0.18%

Q: And the viability, T/C [19]?
A: 0.13%

Q: And the viability, T/C [20]?
A: 0.43%

Q: What about the viability, T/C [29] of the same compound?
A: 0.13%

Q: And the viability, T/C [30]?
A: 0.22%

Q: What does the source list for `Cn1nccc1Nc1nccc(-c2cc3c(s2)C(C)(C)N(CCN2CCOCC2)C3=O)n1` + COc1cc2nc(C)nc(NC(C)c3cc(N)cc(C(F)(F)F)c3)c2cc1OC1CCOC1?
A: IC50 (second compound 0.1 µM): 851 nM; IC50 (second compound 0.316 µM): 560 nM; IC50 (second compound 1 µM): 826 nM; IC50 (second compound 3.16 µM): 531 nM; IC50 (second compound 10 µM): 47.2 nM; viability, T/C [1]: 72.8%; viability, T/C [2]: 73.2%; viability, T/C [3]: 57.6%; viability, T/C [4]: 46.1%; viability, T/C [21]: 44%; viability, T/C [22]: 31.9%; viability, T/C [5]: 82.8%; viability, T/C [6]: 67%; viability, T/C [7]: 52.5%; viability, T/C [8]: 47%; viability, T/C [23]: 37.9%; viability, T/C [24]: 31.6%; viability, T/C [9]: 67.8%; viability, T/C [10]: 65.9%; viability, T/C [11]: 53.7%; viability, T/C [12]: 49.4%; viability, T/C [25]: 41.1%; viability, T/C [26]: 33%; viability, T/C [13]: 64.4%; viability, T/C [14]: 57%; viability, T/C [15]: 55.2%; viability, T/C [16]: 45%; viability, T/C [27]: 41.7%; viability, T/C [28]: 36.6%; viability, T/C [17]: 52.7%; viability, T/C [18]: 46.4%; viability, T/C [19]: 44.1%; viability, T/C [20]: 43.8%; viability, T/C [29]: 34.7%; viability, T/C [30]: 25.4%
